Measured values as given in ChEMBL document CHEMBL2073943, “Effect of the flavonoids biochanin A and silymarin on the P-glycoprotein-mediated transport of digoxin and vinblastine in human intestinal Caco-2 cells” (Pharm Res, 2003).

Assays:
Assay type in all cases: functional, cell-based
[1] = biological target: T1, ATP-dependent translocase ABCB1 (Homo sapiens, UniProt P08183); assay: TP_TRANSPORTER: increase in digoxin intracellular accumulation (digoxin: 11nM, biochanin A: 150 uM) in Caco-2 cells; conditions: caco-2, 150 µM
[2] = biological target: T1, ATP-dependent translocase ABCB1; assay: TP_TRANSPORTER: increase in […] intracellular accumulation (VBL: 27nM, biochanin A: 150 uM) in Caco-2 cells; conditions: caco-2, 150 µM
[3] = biological target: T1, ATP-dependent translocase ABCB1; assay: TP_TRANSPORTER: increase in digoxin intracellular accumulation (digoxin: 11nM, silymarin: 100 uM) in Caco-2 cells; conditions: caco-2, 100 µM
[4] = biological target: T1, ATP-dependent translocase ABCB1; assay: TP_TRANSPORTER: increase in […] intracellular accumulation (VBL: 27nM, silymarin: 100 uM) in Caco-2 cells; conditions: caco-2, 100 µM

T1 sequence (P08183 whole entry): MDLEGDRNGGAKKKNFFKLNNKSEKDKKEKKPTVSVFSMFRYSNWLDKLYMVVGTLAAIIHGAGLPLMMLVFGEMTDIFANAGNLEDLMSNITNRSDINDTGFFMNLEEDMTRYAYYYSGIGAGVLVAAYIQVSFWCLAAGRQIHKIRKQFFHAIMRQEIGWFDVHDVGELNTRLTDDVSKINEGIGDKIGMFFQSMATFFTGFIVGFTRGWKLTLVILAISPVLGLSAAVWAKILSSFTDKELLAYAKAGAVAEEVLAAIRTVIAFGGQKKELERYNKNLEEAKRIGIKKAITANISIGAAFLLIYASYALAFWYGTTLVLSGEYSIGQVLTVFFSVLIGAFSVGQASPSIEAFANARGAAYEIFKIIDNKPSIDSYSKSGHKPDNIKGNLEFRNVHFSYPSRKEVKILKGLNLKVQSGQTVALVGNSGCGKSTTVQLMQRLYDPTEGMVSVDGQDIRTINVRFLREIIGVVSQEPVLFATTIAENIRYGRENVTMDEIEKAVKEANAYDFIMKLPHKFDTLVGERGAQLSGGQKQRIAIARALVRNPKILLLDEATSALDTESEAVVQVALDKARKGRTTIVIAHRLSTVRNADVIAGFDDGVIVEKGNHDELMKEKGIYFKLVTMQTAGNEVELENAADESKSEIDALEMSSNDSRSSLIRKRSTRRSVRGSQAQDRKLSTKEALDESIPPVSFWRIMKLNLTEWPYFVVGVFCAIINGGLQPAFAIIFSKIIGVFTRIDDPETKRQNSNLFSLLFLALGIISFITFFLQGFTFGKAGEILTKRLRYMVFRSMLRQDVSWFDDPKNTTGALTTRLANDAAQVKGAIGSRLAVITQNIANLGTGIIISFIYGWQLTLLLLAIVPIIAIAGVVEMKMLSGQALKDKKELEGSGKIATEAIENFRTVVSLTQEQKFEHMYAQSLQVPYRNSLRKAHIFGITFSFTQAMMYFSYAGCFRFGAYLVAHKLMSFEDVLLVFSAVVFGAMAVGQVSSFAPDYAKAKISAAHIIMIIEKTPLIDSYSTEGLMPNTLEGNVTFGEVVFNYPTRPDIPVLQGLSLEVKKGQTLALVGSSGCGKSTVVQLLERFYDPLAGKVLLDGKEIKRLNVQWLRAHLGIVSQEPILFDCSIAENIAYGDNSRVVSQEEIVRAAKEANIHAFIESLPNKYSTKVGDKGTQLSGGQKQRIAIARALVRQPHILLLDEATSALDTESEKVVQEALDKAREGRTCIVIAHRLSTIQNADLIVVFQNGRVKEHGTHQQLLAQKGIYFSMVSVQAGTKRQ

Activity [1] | Activity [2] | Activity [3] | Activity [4] | Compound
inhibitor [+] | inhibitor [+] |  |  | COc1ccc(-c2coc3cc(O)cc(O)c3c2=O)cc1 [BIOCHANIN]
 |  | inhibitor [+] | inhibitor [+] | SILYMARIN
